Key:
Type in all cases: cell-based, human
[1] = test system: JIMT-1 cells; test: JIMT-1 proliferation in soft agar; conditions: 10-0.003 µg/ml, 8 days
Method: To this aim 96 well suspension cell culture plates were prepared. 100 µL of the soft agar bottom layer (0.6% final concentration in complete medium) was poured and left to solidify. 50 µL of the soft agar top layer (0.4% final concentration) containing 10.000 JIMT-1 cells/well were then added on top, solidified and such 96 well plates incubated overnight at 37° C., 10% CO2. […] Subsequently, the assay was incubated in cell culture incubators for 8 days. Finally, the cells were incubated with Alamar Blue for 3-5 h at 37° C. and fluorescence intensity was determined (excitation: 560 nm; emission: 590 nm). […] (FIG. 8).

[2] = test system: SK-BR-3 and MCF-7 target cells; test: ADCC 51Cr release assay; conditions: whole blood or PBMC effector cells
Method: ADCC activity is an important anti-tumour mechanism of action for therapeutic antibodies in cancer. […] Trastuzumab and a negative control antibody were included as control antibodies in the experiment. Whole blood and PBMC fractions were obtained from healthy donors. Each antibody was tested against the HER2 high (SK-BR-3) and HER2 low (MCF-7) expressing target cells. Target cells were loaded with ^51Cr (Amersham) and opsonized with the indicated concentrations of antibody. Whole-blood or PBMC fraction were used as effector cells in a 200 µL reaction in RPMI 1640 + 10% heat inactivated FCS. Cells were incubated together for 4 h, and lysis was estimated by measuring radioactivity in the supernatant using a Y^- scintillator. Percentage of specific lysis was calculated as follows: (experimental cpm – basal cpm) / (maximal cpm – basal cpm) × 100, with maximal lysis determined in the presence of 5% Triton X-100 and basal lysis in the absence of antibody and effectors.
ADCC activity can be enhanced by different techniques, one of them being the removal of fucose. […] Both antibodies were applied in a serial dilution and a negative control antibody and trastuzumab were included in the assay.

[3] = test system: HRG mediated phosphorylation in N87 and SKBR-3 cells; test: Western blot of HRG stimulated cells; conditions: 5 nM antibody, 100 ng/ml HRG, 1-24 hours
Method: Cells of an exponentially grown culture were harvested and seeded in 10 cm dishes (20×10^6 cells for N87 and 7×10^6 cells for SKBR-3) in starvation medium (N87 cells: RPMI-1640, 0.05% BSA, 10 µg/ml Holo-transferrin; SKBR-3 cells: DMEM/F-12, 2 mM L-glutamine, 0.05% BSA, 10 µg/ml Holo-transferrin). The next day, antibodies were added to a final concentration of 5 nM and cells were incubated for one hour. HRG was then added to a final concentration of 100 ng/ml. After 1, 3, 6 or 24 hours, dishes were placed on ice, cells were washed twice with cold PBS, transferred to Eppendorf tubes and lysed with 250 µl of RIPA lysis buffer (20 mM Tris-HCl pH 7.5, 150 mM NaCl, 1 mM Na2EDTA, 1 mM EGTA, 1% NP-40, 1% sodium deoxycholate, 0.1% SDS, 2.5 mM sodium pyrophosphate, 1 mM beta-glycerophosphate, 1 mM Na3VO4, 1 µg/ml leupeptin). Lysis was allowed to proceed for 30 minutes on ice. Cell lysates were centrifuged and supernatants were collected in new Eppendorf tubes. Protein concentration was determined using the BCA method (Pierce). […] Membranes were blocked for one hour with TBS-T containing 5 % BSA and stained with the indicated antibodies according to the manufacturer’s instructions (Cell Signaling Technology). Membranes were then incubated with a HRP-conjugated secondary antibody, incubated with ECL substrate and subjected to autoradiography using X-ray films (Amersham). […]

[4] = test system: HRG mediated phosphorylation in N87 and SKBR-3 cells; test: PathScan RTK / intracellular signaling antibody arrays; conditions: 5 nM antibody, 100 ng/ml HRG
Method: Cells of an exponentially grown culture were harvested and seeded in 6 well plates (3.75 ×10^6 cells for N87 and 1.5×10^6 cells for SKBR-3) in starvation medium (N87 cells: RPMI-1640, 0.05% BSA, 10 µg/ml Holo-transferrin; SKBR-3 cells: DMEM/F-12, 2 mM L-glutamine, 0.05% BSA, 10 µg/ml Holo-transferrin) and incubated incubated overnight at 37° C., 5% CO2, in 95% relative humidity. The next day, antibodies were added to a final concentration of 5 nM and cells were incubated for one hour at 37° C., 5% CO2, in 95% relative humidity. HRG was then added to a final concentration of 100 ng/ml. After 1, 3, 6 or 24 hours at 37° C., 5% CO2, in 95% relative humidity, plates were placed on ice, cells were washed twice with cold PBS. Subsequently 0.3 ml ice-cold lysis buffer was added (Cell signaling RTK # 9803 or IC # 7018) and cells were lysed for a minimum of 30 minutes on ice. Next, protein concentrations were measured using BCA (Pierce #23235). Protein concentrations were adjusted to 2 mg/ml with lysis buffer. Next, lysates were applied to PathScan RTK Signaling Antibody Arrays (Cell signaling #7949) or PathScan Intracellular Signaling Antibody Arrays. All incubations were performed with sealed wells on an orbital shaker at room temperature. Lysates (75 µl) were diluted 2 times to […] concentration with 75 µl Array Diluent Buffer supplemented with protease inhibitor cocktail and kept on ice. Array wells were blocked with 100 µl Array block buffer for 15 minutes. Block buffer was removed and Lysates were applied to the wells and allowed to incubate for 2 hours. Lysate was aspirated and wells were washed 4 times with 100 µl Wash buffer. Next, 100 µl detection antibody cocktail was added per well and incubated for 1 hour. Antibody cocktail was aspirated and wells were washed 4 times with 100 µl Wash buffer. 75 µl DYLIGHT80™ Streptavidin was added to each well. DYLIGHT80™ Streptavidin was aspirated and wells were washed 4 times with 100 µl Wash buffer. […] Spot fluorescence intensity was calculated using Image Studio software.

[5] = test system: SKBR-3 and N87 cells; test: Internalization of pH-sensitive dye labelled antibodies; conditions: 100 nM labelled antibody, 1 ng/ml HRG

Which results are given for “PB4188: bispecific HER2xHER3 IgG: HER2 arm MF3958, HER3 arm MF3178”?
Inhibition of JIMT-1 proliferation [1]: dose dependent inhibition of JIMT-1 proliferation; ADCC activity [2]: effective at high antibody concentrations; HER3 phosphorylation [3]: prolonged inhibition of HER3 phosphorylation; ERK and S6 phosphorylation [4]: strong inhibition; HER2 phosphorylation [4]: does not inhibit phosphorylation of HER2; AKT phosphorylation ([4]; first 6H): completely blocks AKT phosphorylation; Internalization [5]: internalizes to the same extend as trastuzumab
